# Laboratory results reported in PubChem BioAssay (NCI).
#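 Assay format: 96-well plates, 48-hour exposure. GI50 is the concentration that inhibits growth by half. Definition used: TGI = concentration required for complete inhibition of growth.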
# Legend:
# Experiment in all cases: NCI-60 cell line screen, 48 h
# HCT-15 colon = system: HCT-15 colon
# SN12C renal = system: SN12C renal
# SK-MEL-28 melanoma = system: SK-MEL-28 melanoma
# NCI/ADR-RES ovarian = system: NCI/ADR-RES ovarian
# MDA-MB-231 breast = system: MDA-MB-231 breast
# OVCAR-3 ovarian = system: OVCAR-3 ovarian
# NCI-H460 lung = system: NCI-H460 lung
# SF-295 CNS = system: SF-295 CNS
# ACHN renal = system: ACHN renal
# 786-0 renal = system: 786-0 renal
SMILES,GI50 (HCT-15 colon) [µM],TGI (HCT-15 colon) [µM],GI50 (SN12C renal) [µM],TGI (SN12C renal) [µM],GI50 (SK-MEL-28 melanoma) [µM],TGI (SK-MEL-28 melanoma) [µM],GI50 (NCI/ADR-RES ovarian) [µM],TGI (NCI/ADR-RES ovarian) [µM],GI50 (MDA-MB-231 breast) [µM],TGI (MDA-MB-231 breast) [µM],GI50 (OVCAR-3 ovarian) [µM],TGI (OVCAR-3 ovarian) [µM],GI50 (NCI-H460 lung) [µM],TGI (NCI-H460 lung) [µM],GI50 (SF-295 CNS) [µM],TGI (SF-295 CNS) [µM],GI50 (ACHN renal) [µM],TGI (ACHN renal) [µM],GI50 (786-0 renal) [µM],TGI (786-0 renal) [µM]
N#CC1=C(N)NC(=S)NC12Nc1ccccc1S2 (stereo not given),28.9,> 100,20.5,63.6,26.3,66.9,26.7,88.7,16.4,70.6,14.6,38.1,17,45.8,11.5,31.7,21.8,74.3,> 100,> 100
COc1cc(-c2nc3sc(C)cn3c2/C=C2\C(=O)Nc3ccccc32)c(Br)c(OC)c1OC,29.1,> 100,45.4,> 100,39.1,> 100,28.3,82.5,31.6,97,22.9,51,30.5,94.8,15.6,40.7,32.1,> 100,21.6,50.5
O=c1c2ccccc2c(/C=N\NC2=NCCN2)c2oc3ccccc3n12,14.7,62.1,11.2,27.7,20.7,49,> 100,> 100,16.7,35,18.6,34.3,17.8,39.5,13.5,27.8,14.2,29.9,33.9,> 100
CC(C)(C)c1cc(/C=N/NC(=O)c2ccccc2NC(=O)c2cccs2)c(O)c(C(C)(C)C)c1,0.22,> 100,1.92,62.8,3,46.2,0.606,15.9,1.11,19.1,1.06,10.5,0.331,1.98,0.521,17.9,0.413,19.2,0.588,15.7
COc1cc(/C=C/c2cc(/C=C/c3ccc(O)c(OC)c3)n(C(=O)Nc3ccccc3Cl)n2)ccc1O,0.332,4.15,0.366,5.77,0.519,4.11,0.247,7.91,0.708,11.4,0.45,3.68,0.331,1.25,0.636,3.3,0.344,5.35,0.426,1.57
CC(C)[C@@](O)(c1ccc2cc(OC(F)F)c(OC(F)F)cc2c1)c1cn[nH]n1,15.3,37.4,17.1,35.2,17.1,33.9,18.5,50.9,18.5,39.1,16.3,37.1,18,37.4,14.2,29.7,22.6,83.2,17.2,34.1
COC(=O)c1cc2oc(/C=C3/SC(=S)N(N)C3=O)cc2n1Cc1ccccc1,7.65,> 29.9,12,> 43.3,7.48,> 30.1,4.61,26.9,8.66,26,2.17,6.73,3.02,11.6,1.76,6.02,7.08,25.8,2.84,8.53
CC(C)(C)CC(C)(C)c1ccc(O)c(Cc2ccc(Cl)cc2Cl)c1,1.74,3.18,1.47,2.79,1.61,2.96,1.65,3.05,1.56,2.92,1.74,3.11,1.62,2.97,1.62,2.98,1.68,3.05,1.65,3.1
Cn1cc(-c2nc(-c3c[nH]c4ncccc34)cs2)c2ccccc21,1.47,> 100,> 100,> 100,48.8,> 100,19.9,> 100,1.03,63.8,4.46,24.7,1.27,> 100,26.9,> 100,31.7,> 100,91.7,> 100
COC(=O)[C@]12CC[C@@H](C)[C@H](C)[C@@H]1C1=CC[C@@H]3[C@@]4(C)C[C@@H](OC(=O)/C=C/c5ccccc5)[C@H](O)[C@@](C)(CO)[C@@H]4[C@H](O)C[C@@]3(C)[C@]1(C)CC2,1.93,4.02,1.83,3.6,2.69,9.36,2.92,10.9,1.95,4.17,1.98,4.53,2.12,4.7,2.27,5.75,3.11,11.4,1.87,3.82
COC(=O)c1ccc(/C=C(\c2ccc([N+](=O)[O-])o2)S(=O)(=O)c2ccc(NC(C)=O)cc2)o1,–,6.83,–,1.36,–,17.6,–,30.5,–,5.77,–,19.7,–,53.9,–,32.7,–,11.1,–,14.9
CC(=O)CC/C=C(\C)[C@H](O)[C@H](C)C(=O)O[C@H]1C[C@H](C)C=C2C=C[C@@]3(C)O[C@@H](O)CC(=O)[C@]3(C)[C@H]21,0.545,7.95,0.324,2.43,0.364,2.18,1.44,11.7,0.558,3.07,0.614,3.52,0.379,7.38,0.746,6.51,0.339,2,0.43,3.29
Cn1cc(C2=C(c3cn(-c4ccccc4)c4ccccc34)C(=O)NC2=O)c2ccccc21,10.7,> 25,15.8,> 25,22.3,> 25,11.2,> 25,> 23.3,> 25,14,> 25,17.7,> 25,13.3,> 25,17.3,> 25,> 25,> 25
COc1cc([N+](=O)[O-])c(OC)cc1-c1nc2sc(C)cn2c1/C(N)=N/C(=N)N,> 100,> 100,18.9,49.1,7.02,> 100,> 100,> 100,16.1,45.1,27.6,> 100,43.7,> 100,16.6,> 100,50.2,> 100,> 100,> 100
O=C(c1ccccc1Cl)n1oc2ccccc2c1=O,–,> 100,–,> 100,–,> 100,–,> 100,–,> 100,–,> 100,–,> 100,–,> 100,–,> 100,–,> 100
CCCCCCn1c(SC)nc(COC(=O)NC)c1COC(=O)NC,–,> 100,–,31.3,–,32.4,–,69.3,–,32.8,–,33.5,–,37.3,–,35.1,–,30.5,–,30.3
Cc1ccc2cccc(OC(=O)Nc3cccc(C(F)(F)F)c3)c2n1,3.14,11.3,2.66,8.18,4.34,16.3,3.96,33.3,2.37,7.26,3.35,9.61,2.84,7.8,2.5,7.25,3.04,12.4,4.82,22.2
COc1ccc(C(=NN=C(N)N)c2ccc(OC)cc2)cc1,4.73,19.9,3.15,15.5,5.7,19.1,21.1,75.6,3.88,17.1,1.74,4.76,3.04,11,2.72,11.2,3.49,13.3,3.29,13.1
C/C(=N\OCC(O)CNCCSCc1ccccc1)c1ccccc1Cl (stereo not given),–,41.1,–,34.8,–,37.5,–,41,–,35,–,34.6,–,52.3,–,36.2,–,37.8,–,46.3
COc1ccc(C2CC(c3ccc(Nc4ccnc5cc(Cl)ccc45)cc3)=NN2C=O)cc1 (stereo not given),2.97,> 100,12.6,> 100,20.9,90.9,7.05,> 100,20.1,> 100,14.5,55.4,> 100,> 100,24.8,> 100,7.02,> 100,32,> 100
